Laboratory results from patent US11241477B2, “Oxytocin compositions for treatment of tinnitus” (New York University, priority 2019, dated 2022).

System: tinnitus
Experiment: clinical use of intranasal oxytocin formulations to treat tinnitus
Type: in vivo, human
From the text: In an aspect, this disclosure provides a method for treating tinnitus. The method comprises administering intranasally to an individual a composition comprising or consisting essentially of oxytocin, wherein such administration results in treatment of tinnitus. The effectiveness of treatment of tinnitus may be monitored by quantifying tinnitus, such as by self-evaluation using clinically accepted techniques. An example is the Tinnitus Handicap Inventory (“THI”), a validated and published measurement technique. (Newman et al., Arch Otolaryngol Head Neck Surg, 1996, February 122(2), 143-8). In an embodiment, the improvement in an individual using THI may comprise an improvement of at least 10%. In various embodiments, the improvement may comprise from 10-100%, such as at least 20, 30, 40, 50, 60, 70, 80, 90, 95, or 99%. This example describes clinical use of the present formulations to treat tinnitus. […] The formulation contained oxytocin, magnesium chloride, citric acid, and sodium citrate in sterile water. […] The dose was then increased to 45 IU (3 sprays of 15 IU) 4 times daily. […] A thickener was then added to the formulation keeping the oxytocin amount the same. […] Their score on the Tinnitus Handicap Inventory reduced from a pretreatment score of 96 (meaning a catastrophic level) to a current score of 14 (meaning mild or no tinnitus). The patient has remained improved over 1 year since initiating therapy. Their current dose is 22.5 IU in each nostril 4 times daily. Since their tinnitus occurs in distinct cycles, at times when tinnitus severity is loudest, they increase the dose to 5 times daily for 2 days. […] Their current handicap inventory is 8. […] The dose was increased to 45 IU 4 times daily resulting in a decrease in tinnitus volume by approximately 30%. In another patient, who developed constant tinnitus after a neck injury one year ago, a dose of 45 IU (22.5 IU in each nostril) 4 times daily was used for 30 days and is still ongoing. It has provided about 15% improvement. […] In another patient with constant tinnitus a dose of 30 IU 4 times daily has been started and treatment is ongoing.

[1] = patient with constant tinnitus, 30 IU 4 times daily, after 2 weeks
[2] = second patient, 45 IU twice daily

Structure (SMILES): CC[C@H](C)[C@@H]1NC(=O)[C@H](Cc2ccc(O)cc2)NC(=O)[C@@H](N)CSSC[C@@H](C(=O)N2CCC[C@H]2C(=O)N[C@@H](CC(C)C)C(=O)NCC(N)=O)NC(=O)[C@H](CC(N)=O)NC(=O)[C@H](CCC(N)=O)NC1=O [oxytocin]
- time remained improved since initiating therapy (first patient): over 1 year
- current handicap inventory (first patient, 22.5 IU in each nostril 4 times daily, 5 times daily for 2 days when loudest): 8
- time without tinnitus (first patient, 22.5 IU in each nostril 4 times daily, 5 times daily for 2 days when loudest, past 3 months): ≤ 10 days
- relief of tinnitus (first patient, 45 IU (3 sprays of 15 IU) 4 times daily, no thickener): significant relief
- patient-reported benefit (first patient, 60 IU daily (30 IU twice daily), oxytocin, magnesium chloride, citric acid, sodium citrate in sterile water): partial benefit
- score on the Tinnitus Handicap Inventory (first patient, formulation with thickener, pretreatment score 96 (catastrophic level)): 14
- relief of tinnitus (first patient, initial dose of less than 20 IU daily, intranasal): did not provide any relief
- tinnitus free period (first patient, thickener added to the formulation, oxytocin amount the same (45 IU 4 times daily)): several days of tinnitus free period
- relief of tinnitus (lower amounts of oxytocin (such as under 20 IU per day)): did not result in any significant relief
- improvement (patient with constant tinnitus after neck injury, 45 IU (22.5 IU in each nostril) 4 times daily for 30 days): about 15%
- tinnitus volume (patient with constant tinnitus after neck injury, dose raised to 5 times daily on occasions): diminished tinnitus volume
- time without noticing the tinnitus [1]: several hours per day without noticing the tinnitus
- tinnitus intensity [1]: tinnitus intensity has lowered
- benefit (patient with drug-caused tinnitus, 30 IU twice daily): without benefit
- decrease in tinnitus volume (patient with drug-caused tinnitus, 45 IU 4 times daily): approximately 30%
- benefit [2]: significant benefit
- reduction of tinnitus volume [2]: 45-60%
- time remaining improved on dosing schedule [2]: more than a year
- tinnitus free days [2]: some days in which they are tinnitus free
